ChEMBL document CHEMBL1147269, “Cribrarione B, a new naphthoquinone pigment from the myxomycete Cribraria cancellata” (J Nat Prod, 2003)
Active and inactive are the calls of the source. The rule behind the calls is not given here.

Test system: Bacillus subtilis
Test: Antimicrobial activity against Bacillus subtilis
Type: functional, organism-based

With CC(O)c1cc(O)c2c(c1O)C(=O)C=C(O)C2=O (stereo unspecified) the Activity was “inactive”.
